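Cells were grown in 96-well plates and exposed to each compound for 48 hours at five concentrations; endpoints were interpolated linearly between bracketing concentrations, or set to the highest concentration if not reached. At the GI50, growth is halved.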 Activity calls are given as the source filed them. Cut-off read from the data, not from the text of the source: active = GI50 up to about 1.1 µM and inactive = higher.
Experiments:
Assay in all cases: NCI anticancer screen, dose series, 48 h
HT-29 = test system: HT-29
M14 = test system: M14
Hs-578T = test system: Hs-578T
NCI-H460 = test system: NCI-H460
NCI-H23 = test system: NCI-H23
OVCAR-5 = test system: OVCAR-5
OVCAR-8 = test system: OVCAR-8
A498 = test system: A498
SW-620 = test system: SW-620
SK-MEL-5 = test system: SK-MEL-5
DU-145 = test system: DU-145
SF-295 = test system: SF-295
SK-MEL-28 = test system: SK-MEL-28
SF-539 = test system: SF-539
UACC-62 = test system: UACC-62
A549 = test system: A549
RPMI-8226 = test system: RPMI-8226
SK-MEL-2 = test system: SK-MEL-2
LOX IMVI = test system: LOX IMVI

Measured: GI50

COC(=O)c1ccccc1OCc1cc(=O)oc2ccc(C)cc12
inactive: HT-29 49.5 µM | M14 > 87.7 µM | Hs-578T 27.3 µM | NCI-H460 > 100 µM | NCI-H23 > 100 µM | OVCAR-5 > 100 µM | OVCAR-8 39.3 µM | A498 > 100 µM | SW-620 > 65.8 µM | SK-MEL-5 > 100 µM | DU-145 > 100 µM | SF-295 28.2 µM | SK-MEL-28 > 100 µM | SF-539 20.2 µM | UACC-62 > 39.2 µM | A549 82.2 µM | RPMI-8226 > 63.4 µM | SK-MEL-2 > 42.6 µM | LOX IMVI > 69.2 µM

CC1(C)SC2C(C(=O)O)N=C(Cc3ccccc3)N2C1C(=O)O (stereo not given)
inactive: HT-29 13.6 µM | M14 37.2 µM | Hs-578T 29.4 µM | NCI-H460 45.1 µM | NCI-H23 86.3 µM | OVCAR-5 36.8 µM | OVCAR-8 37.3 µM | A498 53.7 µM | SW-620 60.3 µM | SK-MEL-5 > 100 µM | DU-145 56.6 µM | SF-295 31.7 µM | SK-MEL-28 52.4 µM | SF-539 30.8 µM | UACC-62 > 100 µM | A549 31.8 µM | RPMI-8226 46.8 µM | SK-MEL-2 > 100 µM | LOX IMVI 25.5 µM

O=C(NC/C(Cl)=C/Cl)Nc1cccc2c1CCCC2
inactive: HT-29 38.5 µM | M14 > 100 µM | Hs-578T > 100 µM | NCI-H460 83.8 µM | NCI-H23 > 100 µM | OVCAR-5 > 100 µM | OVCAR-8 > 100 µM | A498 65.8 µM | SW-620 > 100 µM | SK-MEL-5 > 100 µM | DU-145 > 100 µM | SF-295 > 100 µM | SK-MEL-28 > 100 µM | SF-539 > 100 µM | UACC-62 > 100 µM | A549 > 100 µM | RPMI-8226 49.8 µM | SK-MEL-2 > 100 µM | LOX IMVI > 100 µM

COc1ccc(-c2c(C#N)c(=O)nc(SC)n2C2OCC(OC(C)=O)C(OC(C)=O)C2OC(C)=O)cc1 (stereo not given)
inactive: HT-29 56 µM | M14 > 100 µM | Hs-578T 31.6 µM | NCI-H460 27.2 µM | NCI-H23 > 100 µM | OVCAR-5 > 100 µM | OVCAR-8 90.6 µM | A498 62.1 µM | SW-620 64.3 µM | SK-MEL-5 45 µM | DU-145 > 100 µM | SF-295 > 100 µM | SK-MEL-28 > 100 µM | SF-539 > 100 µM | UACC-62 33.5 µM | A549 82.4 µM | RPMI-8226 37.7 µM | SK-MEL-2 > 100 µM | LOX IMVI 64.1 µM

O=[N+]([O-])c1ccccc1S(=O)(=O)N1CCCc2cc(Cl)ccc21
inactive: HT-29 9.35 µM | M14 46.5 µM | Hs-578T 50.8 µM | NCI-H460 18.6 µM | NCI-H23 34 µM | OVCAR-5 > 93.1 µM | OVCAR-8 88.9 µM | A498 27.2 µM | SW-620 17.1 µM | SK-MEL-5 19.6 µM | DU-145 > 90.6 µM | SF-295 23.5 µM | SK-MEL-28 61 µM | SF-539 32.4 µM | UACC-62 23.9 µM | A549 38.7 µM | RPMI-8226 9.02 µM | SK-MEL-2 > 52.6 µM | LOX IMVI 24.3 µM

O=C(O)C1(CC(CCCN2CCCCC2)c2ccccc2)CCCC1 (stereo not given)
inactive: HT-29 > 100 µM | M14 > 100 µM | Hs-578T > 100 µM | NCI-H460 > 100 µM | NCI-H23 > 100 µM | OVCAR-5 > 100 µM | OVCAR-8 > 100 µM | A498 > 100 µM | SW-620 > 100 µM | SK-MEL-5 > 100 µM | DU-145 > 100 µM | SF-295 > 100 µM | SK-MEL-28 > 100 µM | SF-539 > 100 µM | UACC-62 > 100 µM | A549 > 100 µM | RPMI-8226 > 100 µM | SK-MEL-2 > 100 µM | LOX IMVI > 100 µM

CC[C@H](C)C1=C(O)[N@+]2([O-])Oc3ccc(-c4c(O)c(O)c(-c5ccc(O)cc5)c(OC(C)=O)c4OC(C)=O)cc3O[C@]2([C@@H](C)CC)C(=O)N1O
inactive: HT-29 15.7 µM | M14 30.2 µM | Hs-578T 26.5 µM | NCI-H460 19 µM | NCI-H23 47.3 µM | OVCAR-5 > 50 µM | OVCAR-8 27 µM | A498 13.9 µM | SW-620 15.7 µM | SK-MEL-5 19 µM | DU-145 33.3 µM | SF-295 24.8 µM | SK-MEL-28 46.8 µM | SF-539 18 µM | UACC-62 17.4 µM | A549 16.7 µM | RPMI-8226 10.6 µM | SK-MEL-2 > 50 µM | LOX IMVI 22.4 µM

CC(=O)OC1OC(c2ccoc2)C[C@@]12C1CCC3O[C@]3(C)[C@]1(C)C[C@H](OC(C)=O)[C@H]2C (stereo not given in full)
inactive: HT-29 > 75 µM | M14 > 75 µM | Hs-578T > 75 µM | NCI-H460 58.3 µM | NCI-H23 74.1 µM | OVCAR-5 > 75 µM | OVCAR-8 > 75 µM | A498 > 75 µM | SW-620 > 75 µM | SK-MEL-5 > 75 µM | DU-145 > 75 µM | SF-295 > 75 µM | SK-MEL-28 > 75 µM | SF-539 > 75 µM | UACC-62 51.3 µM | A549 > 75 µM | RPMI-8226 44 µM | SK-MEL-2 > 75 µM | LOX IMVI > 75 µM

N#Cc1c2ccc([N+](=O)[O-])cc2c(=O)n2c1[nH]c1ccc(C(F)(F)F)cc12
inactive: HT-29 11.2 µM | M14 24.5 µM | Hs-578T 24.4 µM | NCI-H460 21.1 µM | NCI-H23 20.1 µM | OVCAR-5 14.3 µM | OVCAR-8 33.1 µM | A498 7.91 µM | SW-620 14.4 µM | SK-MEL-5 29.4 µM | DU-145 44.4 µM | SF-295 14.4 µM | SK-MEL-28 24.2 µM | SF-539 > 100 µM | UACC-62 42.7 µM | A549 > 55.8 µM | RPMI-8226 4.48 µM | SK-MEL-2 > 64.7 µM | LOX IMVI 6.56 µM

Cc1ccc(/N=N/c2c(O)c3ccccc3[nH]c2=O)c(S(=O)(=O)N(C)C)c1
inactive: HT-29 > 100 µM | M14 > 100 µM | Hs-578T > 100 µM | NCI-H460 > 100 µM | NCI-H23 > 100 µM | OVCAR-5 > 100 µM | OVCAR-8 > 100 µM | A498 > 100 µM | SW-620 > 100 µM | SK-MEL-5 > 100 µM | DU-145 > 100 µM | SF-295 > 100 µM | SK-MEL-28 > 100 µM | SF-539 > 100 µM | UACC-62 > 100 µM | A549 > 100 µM | RPMI-8226 > 100 µM | SK-MEL-2 > 100 µM | LOX IMVI > 100 µM

Source: ChEMBL document CHEMBL1201862, “PubChem BioAssay data set” (2004)
